In patent US20240115654A1, “INTRAVENOUS ADMINISTRATION OF ENGINEERED ANTIMICROBIAL AMPHIPHILIC PEPTIDES” (priority 2021, published 2024):
“And” between values parts separate entries of the source, which are not always exact repeats. Identical values can stand only once. Like-named read-outs stand apart in the source and are kept apart here. Peptide text beside a SMILES is read from it.

[1] = Cohort 1, 0.05 mg/kg IV infusion, Geometric Mean
[2] = Cohort 1, 0.05 mg/kg IV infusion, Max
[3] = Cohort 1, 0.05 mg/kg IV infusion, Mean
[4] = Cohort 1, 0.05 mg/kg IV infusion, Median
[5] = Cohort 1, 0.05 mg/kg IV infusion, Min
[6] = Cohort 1, 0.05 mg/kg IV infusion, cohort Geometric Mean
[7] = Cohort 1, 0.05 mg/kg IV infusion, cohort Mean
[8] = Cohort 1, 0.05 mg/kg IV infusion, cohort Median
[9] = Cohort 1, 0.05 mg/kg IV infusion, individual subject
[10] = Cohort 1, 0.05 mg/kg IV infusion, individual subjects
[11] = Cohort 3b and 4 section: over the 10-fold increase in dose
[12] = Cohort 3b and 4 section: over the […] increase in dose
[13] = Cohort 3b, […] IV infusion 2 hours, Max
[14] = Cohort 3b, […] IV infusion 2 hours, Min
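Note: phase 1 study in human subjects given one IV dose of the peptide, enrolled in sequential ascending-dose cohorts and randomized to peptide or placebo.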

SMILES: CC(C)[C@H](NC(=O)[C@H](Cc1c[nH]c2ccccc12)NC(=O)[C@H](CCCNC(=N)N)NC(=O)[C@H](CCCNC(=N)N)NC(=O)[C@@H](NC(=O)[C@@H](NC(=O)[C@H](CCCNC(=N)N)NC(=O)[C@@H](NC(=O)[C@@H](NC(=O)[C@H](CCCNC(=N)N)NC(=O)[C@H](CCCNC(=N)N)NC(=O)[C@H](Cc1c[nH]c2ccccc12)NC(=O)[C@@H](NC(=O)[C@H](CCCNC(=N)N)NC(=O)[C@H](CCCNC(=N)N)NC(=O)[C@@H](NC(=O)[C@H](CCCNC(=N)N)NC(=O)[C@H](CCCNC(=N)N)NC(=O)[C@@H](NC(=O)[C@H](Cc1c[nH]c2ccccc12)NC(=O)[C@H](CCCNC(=N)N)NC(=O)[C@@H](N)CCCNC(=N)N)C(C)C)C(C)C)C(C)C)C(C)C)C(C)C)C(C)C)C(C)C)C(=O)N[C@@H](CCCNC(=N)N)C(=O)N[C@@H](CCCNC(=N)N)C(N)=O [SEQ ID NO: 1] (H-RRWVRRVRRVWRRVVRVVRRWVRR-NH2)
- Plasma Concentration by Nominal Time from Start of Infusion, Mean (Cohort 1, 0.05 mg/kg IV 1-hr infusion, 49 h, cohort mean): 0.00 ng/mL
- Plasma Concentration by Nominal Time from Start of Infusion (Cohort 1, 0.05 mg/kg IV 1 hr infusion, 0.0 h, individual subjects): 0.00 ng/mL
- Plasma Concentration by Nominal Time from Start of Infusion (Cohort 1, 0.05 mg/kg IV 1 hr infusion, 9.0 h, individual subjects): 63.2 ng/mL
- Plasma Concentration by Nominal Time from Start of Infusion (Cohort 1, 0.05 mg/kg IV 1 hr infusion, 13 h, individual subjects): 32.9 ng/mL
- Plasma Concentration by Nominal Time from Start of Infusion (Cohort 1, 0.05 mg/kg IV 1 hr infusion, 21 h, individual subjects): 0.00 ng/mL
- Plasma Concentration by Nominal Time from Start of Infusion (Cohort 1, 0.05 mg/kg IV 1 hr infusion, 25 h, individual subjects): 0.00 ng/mL
- Plasma Concentration by Nominal Time from Start of Infusion (Cohort 1, 0.05 mg/kg IV 1 hr infusion, 37 h, individual subjects): 0.00 ng/mL
- Plasma Concentration by Nominal Time from Start of Infusion, Mean (Cohort 1, 0.05 mg/kg IV 1 hr infusion, 49 h, cohort mean N 6): 0.00 ng/mL
- Plasma Concentration by Nominal Time from Start of Infusion (Cohort 1, 0.05 mg/kg IV 1 hr infusion, 49 h, individual subjects): 0.00 ng/mL
- AUCextrap [1]: 8.36%
- CL/F [1]: 0.522 mL/min/kg
- Tlast [1]: 24 h
- λz [1]: 0.0946 h⁻¹
- AUC0-24 [2]: 1610 ng·h/mL
- AUC(0-inf) [2]: 1820 ng·h/mL
- AUC(0-t) [2]: 1720 ng·h/mL
- AUCextrap [2]: 12.1%
- CL/F [2]: 0.595 mL/min/kg
- Cmax [2]: 341 ng/mL
- Tlast [2]: 37 h
- t1/2 [2]: 8.59 h
- λz [2]: 0.105 h⁻¹
- AUCextrap [3]: 8.87%
- CL/F [3]: 0.525 mL/min/kg
- Tlast [3]: 25 h
- λz [3]: 0.0950 h⁻¹
- AUCextrap [4]: 8.12%
- Tlast [4]: 25 h
- λz [4]: 0.0951 h⁻¹
- AUC0-24 [5]: 619 ng·h/mL
- AUC(0-t) [5]: 515 ng·h/mL
- AUCextrap [5]: 4.54%
- CL/F [5]: 0.457 mL/min/kg
- Cmax [5]: 170 ng/mL
- Tlast [5]: 13 h
- t1/2 [5]: 6.62 h
- λz [5]: 0.0807 h⁻¹
- AUCextrap [6]: 8.36%
- CL/F [6]: 0.522 mL/min/kg
- Tlast [6]: 24 h
- λz [6]: 0.0946 h⁻¹
- AUCextrap [7]: 8.87%
- CL/F [7]: 0.525 mL/min/kg
- Tlast [7]: 25 h
- λz [7]: 0.0950 h⁻¹
- AUCextrap [8]: 8.12%
- Tlast [8]: 25 h
- λz [8]: 0.0951 h⁻¹
- AUC(0-inf) [9]: 1490 ng·h/mL and 1800 ng·h/mL and 1820 ng·h/mL
- CL/F [9]: 0.595 mL/min/kg and 0.562 mL/min/kg
- AUC(0-inf) [10]: 1490 ng·h/mL and 1800 ng·h/mL and 1820 ng·h/mL
- Tlast [10]: 25 h (4×) and 13 h and 37 h
- CL/F (Cohort 2, […] IV infusion, Max): 1.44 mL/min/kg
- t1/2 (Cohort 2, […] IV infusion, Max): 15.5 h
- CL/F (Cohort 2, […] IV infusion, Mean): 0.878 mL/min/kg
- CL/F (Cohort 2, […] IV infusion, Median): 0.82 mL/min/kg
- CL/F (Cohort 2, […] IV infusion, Min): 0.322 mL/min/kg
- t1/2 (Cohort 2, […] IV infusion, Min): 7.51 h
- CL/F (Cohort 2, […] IV infusion, cohort Mean): 0.878 mL/min/kg
- CL/F (Cohort 2, […] IV infusion, cohort Median): 0.82 mL/min/kg
- CL/F (Cohort 3, […] IV infusion, Geometric Mean): 0.91 mL/min/kg
- CL/F (Cohort 3, […] IV infusion, Max): 4.3 mL/min/kg
- t1/2 (Cohort 3, […] IV infusion, Max): 21.8 h
- CL/F (Cohort 3, […] IV infusion, Mean): 1.4 mL/min/kg
- CL/F (Cohort 3, […] IV infusion, Min): 0.295 mL/min/kg
- t1/2 (Cohort 3, […] IV infusion, Min): 5.80 h
- CL/F (Cohort 3, […] IV infusion, cohort Geometric Mean): 0.91 mL/min/kg
- CL/F (Cohort 3, […] IV infusion, cohort Mean): 1.4 mL/min/kg
- increase of AUC0-t [11]: 6.4 fold
- increase of mean AUC0-24 [11]: 5.8 fold
- increase of mean Cmax [11]: 7.1 fold
- increase of AUC0-t [12]: 4.2 fold
- increase of mean AUC0-24 [12]: 3.7 fold
- increase of mean Cmax [12]: 3.7 fold
- CL/F (Cohort 3b, […] IV infusion 2 hours, Geometric Mean): 0.748 mL/min/kg
- CL/F [13]: 1.36 mL/min/kg
- t1/2 [13]: 17.5 h
- CL/F (Cohort 3b, […] IV infusion 2 hours, Mean): 0.795 mL/min/kg
- CL/F (Cohort 3b, […] IV infusion 2 hours, Median): 0.76 mL/min/kg
- CL/F [14]: 0.415 mL/min/kg
- t1/2 [14]: 9.72 h
- CL/F (Cohort 3b, […] IV, infusion 2 hours, cohort Geometric Mean): 0.748 mL/min/kg
- CL/F (Cohort 3b, […] IV, infusion 2 hours, cohort Mean): 0.795 mL/min/kg
- CL/F (Cohort 3b, […] IV, infusion 2 hours, cohort Median): 0.76 mL/min/kg
- Plasma Concentration by Nominal Time from Start of Infusion, Mean (Cohort 4, 0.5 mg/kg IV 2-hr infusion, 0.0 h, cohort mean): 0.00 ng/mL
- AUCextrap (Cohort 4, 0.5 mg/kg IV infusion 2 hours, Geometric Mean): 7.38%
- AUC0-24 (Cohort 4, 0.5 mg/kg IV infusion 2 hours, Max): 10400 ng·h/mL
